Here are results for 30 molecules from patent US11746100B2 (GLOBAL BLOOD THERAPEUTICS, INC., priority 2020, dated 2023).

Structures are written as SMILES.

In this assay the target is T1, human ferroportin (Homo sapiens, UniProt Q9NP59).
T1 construct: luciferase reporter (read with the Nano-Glo Luciferase Assay System); expressed in transfected cells; host or cells: CHO cells, stably transfected, expression induced with doxycycline
T1 sequence (Q9NP59 1-571): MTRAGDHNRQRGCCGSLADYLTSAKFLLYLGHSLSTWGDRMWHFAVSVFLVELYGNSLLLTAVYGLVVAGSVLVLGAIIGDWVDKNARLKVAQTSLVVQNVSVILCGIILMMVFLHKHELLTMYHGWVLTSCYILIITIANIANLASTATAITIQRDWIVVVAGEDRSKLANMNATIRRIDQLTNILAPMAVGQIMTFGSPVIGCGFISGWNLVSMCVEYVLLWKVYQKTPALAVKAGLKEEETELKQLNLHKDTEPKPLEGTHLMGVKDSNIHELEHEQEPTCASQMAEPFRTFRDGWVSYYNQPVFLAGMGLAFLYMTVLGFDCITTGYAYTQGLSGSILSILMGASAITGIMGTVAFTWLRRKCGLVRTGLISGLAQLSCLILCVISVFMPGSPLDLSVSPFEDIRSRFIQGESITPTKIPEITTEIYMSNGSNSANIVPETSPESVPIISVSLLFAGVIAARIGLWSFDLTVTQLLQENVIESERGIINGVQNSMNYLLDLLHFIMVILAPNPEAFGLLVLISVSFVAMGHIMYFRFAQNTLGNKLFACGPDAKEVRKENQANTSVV
Nature of the assay: Biological in-vitro ferroportin internalization assay (luciferase reporter). In kind it is cell-based. The following applies: average pEC50; stably-transfected CHO cell line expressing human ferroportin tagged to a luciferase reporter; 6 h incubation with test compound. The procedure: The protocol for this assay is generally as described in WO2018/128828, incorporated herein by reference in its entirety. Functional internalization of ferroportin protein was measured using a stably-transfected CHO cell line expressing the human ferroportin tagged to a luciferase reporter. Cells were plated for 24 h in the presence of ferric ammonium citrate (FAC). Ferroportin protein expression was induced with doxycycline for 24 h. The next day, the compounds were added. Test compounds were dissolved in DMSO. Cells were incubated with the test compounds for 6 h, and subsequently luciferase activity was measured using the Nano-Glo Luciferase Assay System and Glomax (Promega, Madison, Wis.). The average pEC50 was determined for the test compounds.

Turning to `CC(C)(C)NC(=O)CN(CCO)c1nc(-c2ccccn2)nc2c1CCC2` [Compound 37, N-tert-butyl-2-[(2-hydroxyethyl)[2-(pyridin-2-yl)-5H,6H,7H-cyclopenta[d]pyrimidin-4-yl]amino]acetamide], the negative logarithm of the EC50 (pEC50) amounted to 6.6.
`CN(CC(=O)NCc1ccccn1)c1nc(-c2ccccn2)nc2c1CCC2` [Compound 38, 2-{methyl[2-(pyridin-2-yl)-5H,6H,7H-cyclopenta[d]pyrimidin-4-yl]amino}-N-[(pyridin-2-yl)methyl]acetamide] yielded a pEC50 of 6.6.
Under `CN(CC(=O)NC(C)(C)C)c1nc(-c2cccc(OCCO)n2)nc2c1CCC2` [Compound 39, N-tert-butyl-2-({2-[6-(2-hydroxyethoxy)pyridin-2-yl]-5H,6H,7H-cyclopenta[d]pyrimidin-4-yl}(methyl)amino)acetamide] stands 6.3.
Under `CN(CC(=O)NC(C)(C)C)c1nc(-c2ccc(OCCO)cn2)nc2c1CCC2` [Compound 40, N-tert-butyl-2-({2-[5-(2-hydroxyethoxy)pyridin-2-yl]-5H,6H,7H-cyclopenta[d]pyrimidin-4-yl}(methyl)amino)acetamide] stands 7.1; under `CN(CC(=O)NC(C)(C)C)c1nc(-c2cc(CO)ccn2)nc2c1CCC2` [Compound 41, N-tert-butyl-2-({2-[4-(hydroxymethyl)pyridin-2-yl]-5H,6H,7H-cyclopenta[d]pyrimidin-4-yl}(methyl)amino)acetamide], 7.3.
The result for `Cc1ccnc(-c2nc3c(c(N(C)CC(=O)NC(C)(C)C)n2)CCCC3)c1` [Compound 42, N-tert-butyl-2-{methyl[2-(4-methylpyridin-2-yl)-5,6,7,8-tetrahydroquinazolin-4-yl]amino}acetamide] reads 7.3.
In turn, `CN(CC(=O)NC(C)(C)C)c1nc(-c2ccc(CCO)cn2)nc2c1CCC2` [Compound 43, N-tert-butyl-2-({2-[5-(2-hydroxyethyl)pyridin-2-yl]-5H,6H,7H-cyclopenta[d]pyrimidin-4-yl}(methyl)amino)acetamide] returned a negative logarithm of the EC50 (pEC50) of 7.
The result for `CN(CC(=O)NC(C)(C)C)c1nc(-c2cc(OCCO)ccn2)nc2c1CCC2` [Compound 44, N-tert-butyl-2-({2-[4-(2-hydroxyethoxy)pyridin-2-yl]-5H,6H,7H-cyclopenta[d]pyrimidin-4-yl}(methyl)amino)acetamide] reads 7.9; that for `Cc1ccnc(-c2nc3c(c(N4CCCO[C@H]5CCC[C@@H]54)n2)CCC3)c1` [Compound 45, 2-{4-[(5aS,8aS)-octahydro-2H-cyclopenta[b][1,4]oxazepin-5-yl]-5H,6H,7H-cyclopenta[d]pyrimidin-2-yl}-4-methylpyridine], 7.2; that for `O=C1CCCCCN1c1nc(-c2ccccn2)nc2c1CCC2` [Compound 46, 1-[2-(pyridin-2-yl)-5H,6H,7H-cyclopenta[d]pyrimidin-4-yl]azepan-2-one], 5.1.
Under `O=C1CN(c2nc(-c3ccccn3)nc3c2CCC3)CCCN1` [Compound 47, 4-[2-(pyridin-2-yl)-5H,6H,7H-cyclopenta[d]pyrimidin-4-yl]-1,4-diazepan-2-one] stands 5.7; under `c1ccc(-c2nc3c(c(N4CCCO[C@@H]5CCC[C@@H]54)n2)CCC3)nc1` [Compound 48, 2-{4-[(5aS,8aR)-octahydro-2H-cyclopenta[b][1,4]oxazepin-5-yl]-5H,6H,7H-cyclopenta[d]pyrimidin-2-yl}pyridine], 6.8; under `Cc1ccnc(-c2nc3c(c(N4CCCO[C@@H]5CCC[C@@H]54)n2)CCC3)c1` [Compound 49, 2-{4-[(5aS,8aR)-octahydro-2H-cyclopenta[b][1,4]oxazepin-5-yl]-5H,6H,7H-cyclopenta[d]pyrimidin-2-yl}-4-methylpyridine], 7.1.
In turn, `O=C1CCN(c2nc(-c3ccccn3)nc3c2CCC3)CCN1` [Compound 50, 1-[2-(pyridin-2-yl)-5H,6H,7H-cyclopenta[d]pyrimidin-4-yl]-1,4-diazepan-5-one] yielded a pEC50 of 5.6.
Under `C[C@H](C(=O)NC(C)(C)C)N(C)c1nc(-c2ccccn2)nc2c1CCC2` [Compound 51, (2R)—N-tert-butyl-2-{methyl[2-(pyridin-2-yl)-5H,6H,7H-cyclopenta[d]pyrimidin-4-yl]amino}propanamide] stands 7.5; under `C[C@@H](C(=O)NC(C)(C)C)N(C)c1nc(-c2ccccn2)nc2c1CCC2` [Compound 52, (2S)—N-tert-butyl-2-{methyl[2-(pyridin-2-yl)-5H,6H,7H-cyclopenta[d]pyrimidin-4-yl]amino}propanamide], 6.8; under `COc1ccnc(-c2nc3c(c(N4CCCCCC4)n2)CCC3)c1` [Compound 53, 1-[2-(4-methoxypyridin-2-yl)-5H,6H,7H-cyclopenta[d]pyrimidin-4-yl]azepane], 6.6.
Turning to `COc1ccnc(-c2nc3c(c(N4CCCO[C@@H]5CCC[C@@H]54)n2)CCC3)c1` [Compound 54, 2-{4-[(5aS,8aR)-octahydro-2H-cyclopenta[b][1,4]oxazepin-5-yl]-5H,6H,7H-cyclopenta[d]pyrimidin-2-yl}-4-methoxypyridine], the pEC50 is reported as 6.9.
`CC1(C)CC[C@@H](Nc2nc(-c3ccccn3)nc3c2CCC3)C(=O)N1` [Compound 55, (3R)-6,6-dimethyl-3-{[2-(pyridin-2-yl)-5H,6H,7H-cyclopenta[d]pyrimidin-4-yl]amino}piperidin-2-one] showed a pEC50 of 6.3.
The result for `CC1(C)CC[C@H](Nc2nc(-c3ccccn3)nc3c2CCC3)C(=O)N1` [Compound 56, (3S)-6,6-dimethyl-3-{[2-(pyridin-2-yl)-5H,6H,7H-cyclopenta[d]pyrimidin-4-yl]amino}piperidin-2-one] reads 6.7; that for `CN(CC(=O)NC(C)(C)C)c1nc(-c2cc(C3CC3)ccn2)nc2c1CCC2` [Compound 57, N-tert-butyl-2-{[2-(4-cyclopropylpyridin-2-yl)-5H,6H,7H-cyclopenta[d]pyrimidin-4-yl](methyl)amino}acetamide], 7.5.
The result for `CN(CC(=O)NC(C)(C)C)c1nc(-c2cc(F)ccn2)nc2c1CCC2` [Compound 58, N-tert-butyl-2-{[2-(4-fluoropyridin-2-yl)-5H,6H,7H-cyclopenta[d]pyrimidin-4-yl](methyl)amino}acetamide] reads 6.7; that for `Cc1cccc(-c2nc3c(c(N(C)CC(=O)NC(C)(C)C)n2)CCC3)n1` [Compound 59, -tert-butyl-2-{methyl[2-(6-methylpyridin-2-yl)-5H,6H,7H-cyclopenta[d]pyrimidin-4-yl]amino}acetamide], 6.8; that for `Cc1cnc(-c2nc3c(c(N(C)CC(=O)NC(C)(C)C)n2)CCC3)cc1C` [Compound 60, N-tert-butyl-2-{[2-(4,5-dimethylpyridin-2-yl)-5H,6H,7H-cyclopenta[d]pyrimidin-4-yl](methyl)amino}acetamide], 7.6.
Under `CN(CC(=O)NC(C)(C)CO)c1nc(-c2ccccn2)nc2c1CCC2` [Compound 61, N-(1-hydroxy-2-methylpropan-2-yl)-2-{methyl[2-(pyridin-2-yl)-5H,6H,7H-cyclopenta[d]pyrimidin-4-yl]amino}acetamide] stands 7.1.
In turn, `Cc1ccnc(-c2nc3c(c(N(C)CC(=O)NC(C)(C)CO)n2)CCC3)c1` [Compound 62, N-(1-hydroxy-2-methylpropan-2-yl)-2-{methyl[2-(4-methylpyridin-2-yl)-5H,6H,7H-cyclopenta[d]pyrimidin-4-yl]amino}acetamide] gave a pEC50 of 7.6.
The result for `CN(CC(=O)NC(C)(C)CCO)c1nc(-c2ccccn2)nc2c1CCC2` [Compound 63, N-(4-hydroxy-2-methylbutan-2-yl)-2-{methyl[2-(pyridin-2-yl)-5H,6H,7H-cyclopenta[d]pyrimidin-4-yl]amino}acetamide] reads 7.2; that for `Cc1ccnc(-c2nc3c(c(N(C)CC(=O)NC4CCCC4)n2)CCC3)c1` [Compound 64, N-cyclopentyl-2-{methyl[2-(4-methylpyridin-2-yl)-5H,6H,7H-cyclopenta[d]pyrimidin-4-yl]amino}acetamide], 7.8; that for `Cc1ccnc(-c2nc3c(c(N(C)CC(=O)NC4(C)CCOC4)n2)CCC3)c1` (stereo not drawn) [Compound 65, 2-{methyl[2-(4-methylpyridin-2-yl)-5H,6H,7H-cyclopenta[d]pyrimidin-4-yl]amino}-N-(3-methyloxolan-3-yl)acetamide], 7.6.
Regarding `Cc1ccnc(-c2nc3c(c(N(C)CC(=O)Nc4cccc(F)c4)n2)CCC3)c1` [Compound 66, N-(3-fluorophenyl)-2-{methyl[2-(4-methylpyridin-2-yl)-5H,6H,7H-cyclopenta[d]pyrimidin-4-yl]amino}acetamide], the negative-log EC50 (pEC50) was found to be 7.7.

What is called pEC50 is the EC50 on a negative log10 scale, so that one unit is a factor of ten. Lower therefore signals a high EC50.
